Tested on: vector-transformed E. coli JA202
Assay: Uptake of radioligands into vector-transformed bacteria
Format: cell-based
Method: The cultures were grown at 37 °C and 180 r.p.m. in an incubator shaker (Multitron, Infors HT). Protein expression was induced at OD600 ~0.5 by addition of IPTG to a final concentration of 0.25 mM. After 4 h, bacteria were pelleted (5,200 × g, 10 min, room temperature) and resuspended in uptake buffer (20 mM Bis-Tris propane-HCl (pH 6.7), 250 mM KCl) to a bacteria density of OD600 12. […] Furthermore, [3-3 H] propionic acid sodium salt ([^3H]propionate, American Radiolabeled Chemicals, specific activity 30 Ci/mmol), n-[2,3-3 H] butyric acid sodium salt ([^3H]butyrate, American Radiolabeled Chemicals, specific activity 120 Ci/mmol), and [1–14 C] pyruvic acid sodium salt ([^14C]pyruvate, specific activity 0.055 Ci/mmol American Radiolabeled Chemicals) were also used for transport experiments. […] Uptake experiments were performed in 2 ml reaction tubes (Eppendorf) at 30 °C under agitation (1,000 r.p.m., Thermomixer compact, Eppendorf). […] Bacteria were immediately pelleted by centrifugation (21,000 × g, 4 min, room temperature) and washed two times with 900 μl stop buffer. Finally, bacteria were lyzed in 50 μl 5% (w/v) sodium dodecylsulfate and transferred into a white 96-well plate (Optiplate, PerkinElmer). 150 µl of scintillation cocktail (MicroScint 40, PerkinElmer) were added before measuring each reaction for 2 min with a scintillation counter (TopCount NXT, PerkinElmer). For data analysis, the signal of the empty vector was subtracted from the transporter signal. […] Cpm values of each experiment were normalized with respect to the determined upper plateau value, i.e., the fitted upper plateau value corresponds to 100%. The arithmetic average of three independent experiments was calculated. Three independent and normalized pH-dependence curves were then averaged. For data analysis Prism6 (GraphPad Software) was used. The expression of SfMCT variants in E. coli JA202 (MC4100 glcA::cat lldP::kan)[15] was verified by Western blotting. Equal amounts of bacteria expressing SfMCT variants were loaded on 14% SDS/polyacrylamide gels. His-tagged transporters were detected using an anti-His5 (Qiagen, catalogue number 34660, primary antibody) at a dilution of 1:3,000 and a goat anti-mouse IgG (H + L) HRP conjugate antibody (Biorad, catalogue number 172-1011, secondary antibody) at a dilution of 1:2,500.

Structure (SMILES): C[C@H](O)C(=O)O [L-lactate]
- Uptake of radioligand by vector (cpm) (0.1 µCi radiolabeled monocarboxylate, vector-transformed bacteria): 1768.33 cpm
- Uptake of [14C]L-lactate by vector (cpm) (Time 5 min): 384.333 cpm
- Uptake of [14C]L-lactate by vector (cpm) (Time 10 min): 605.333 cpm
- Uptake of [14C]L-lactate by vector (cpm) (Time 20 min): 1203 cpm
- Uptake of [14C]L-lactate by vector (cpm) (Time 30 min): 1731 cpm
- Uptake of [14C]L-lactate by vector (cpm) (Time 40 min): 2474 cpm
- Uptake of [14C]L-lactate by vector (cpm) (Time 50 min): 3128.67 cpm
- Uptake of [14C]L-lactate by vector (cpm) (Time 60 min): 3938.67 cpm
- Uptake of [14C]L-lactate by vector (cpm) (Time 75 min): 5158 cpm
- Uptake of [14C]L-lactate by vector (cpm) (Time 90 min): 7311.67 cpm
